From patent US20110136880A1, “Latrunculin-Based Macrolides and Their Uses” (priority 2009, published 2011) come the findings set out here.

One assay has as its target T1, pyrene-conjugated actin (Oryctolagus cuniculus, UniProt P68135).
T1 construct: purchased Cytoskeleton, Denver, Colo
As to the kind of experiment: Pyrene actin polymerization assay. The class given is biochemical. Particulars: for inhibition at 0.1 µM: 100 nM, read-out: Actin polymerization inhibition (%) 100 nM; for inhibition at 0.1 µM / inhibition at 1 µM: compared to vehicle control (DMSO); for inhibition at 1 µM: read-out: Actin polymerization inhibition (%) 1 μM; for IC50: mean ± SEM, triplicate. The method, then:
An actin polymerization kit was used to assess the direct actin-binding activity of each analogue at two concentrations: 100 nM and 1 μM. This kit is based on the enhanced fluorescence of pyrene-conjugated actin that occurs during polymerization. When pyrene-G-actin (monomer) forms pyrene-F-actin, fluorescence is enhanced. The enhanced fluorescence is used to follow polymerization over time. Table 2 lists activities as the percentage of actin polymerization inhibition, compared to the negative vehicle control (DMSO), along with calculated IC50.
Pyrene-Actin Polymerization Assays. Actin polymerization assays were performed in accordance with the manufacturer's instructions (Cytoskeleton, Denver, Colo.). Briefly, […] final concentration of monomeric actin (1:10 pyrene labeled) was incubated on ice for 10 min with one of various concentrations of one of the latrunculin derivatives. Samples were then equilibrated 10 min in an ELISA plate reader (BioTek, VT), after which polymerization was induced by adding KCl, MgCl2, and ATP. Compounds 1-14 were tested at 0.1, 0.5, 1.0, and 10 μM. The IC50 for each compound was calculated using GraphPad Prism 5.0.
Pyrene-actin polymerization assays. Actin polymerization inhibitory activity is assessed using the Cytoskeleton Actin Polymerization kit (Cytoskeleton, Denver, Colo.). Briefly, […] (final concentration) of monomeric actin (1:10 pyrene labeled) is incubated on ice for 10 min with one of various concentrations of the test latrunculin compound. Samples are equilibrated 10 min in an ELISA plate reader (BioTek, VT), after which polymerization is induced by adding KCl, MgCl2, and ATP. Compounds are tested at 0.1, 0.5, 1.0, and 10 μM. The IC50 for each compound is calculated using GraphPad Prism 5.0.

Assay [1] has as its system alkaline phosphatase in C2C12 cells. Kind of assay: Alkaline phosphatase in C2C12 cells (Wnt pathway). The class given is cell-based. The conditions noted are these: Mus musculus. The source says: (§1) Effects on Wnt/β-catenin. […] These two compounds affected both alkaline phosphatase and β-catenin levels in C2C12 cells.
The next assay concerns β-catenin in C2C12 cells. As to the kind of experiment: Wnt/β-catenin signaling, β-catenin levels in C2C12 cells. The class given is cell-based.
Source text: as §1

A further assay concerns MDA-MB-231. As to the kind of experiment: Wound-healing assay. The class given is cell-based, human. Particulars: 100 nM dose. The method, then:
Wound-healing assay. MDA-MB-231 cells are plated onto sterile 24-well plates and allowed to form a confluent cell monolayer (>95% confluence) overnight. Wounds are then inflicted on each cell monolayer using a sterile 200 μL pipette tip. Media are removed, and cells are washed twice with PBS and once with fresh serum-free media. Test latrunculin compounds at various concentrations (100 nM-10 μM) in fresh, serum-free media are added to each well and incubated for 24 h under serum-starved conditions. Media are then removed, and the cells are washed, fixed and stained using Diff-Quick™ staining (Dade Behring Diagnostics, Aguada, Puerto Rico). Cells that have migrated across the inflicted wound are counted under the microscope in three or more randomly selected fields (magnification: 400×). All experiments are conducted independently in triplicate replications.

The test system of assay [2] is prostate cancer cell line PC-3. As to the kind of experiment: Invasion assay, PC-3. The class given is cell-based, human. The conditions noted are these: without cytotoxicity.
Assay [3] deals with breast, CNS, colon, lung, melanoma, ovarian, and renal cancer cells. Kind of assay: Antiproliferative testing against 60 cell lines (NSC compounds). The class given is cell-based.
In a further assay the test system is array of kinases. Kind of assay: Kinase profiling. Particulars: any kinase tested. The class given is binding. The method, then:
Latrunculins B and H (compounds 20 and 14, respectively) were tested in a panel of assays including ApoE secretion, anti-angiogenesis, G2/M, Wnt pathway, insulin secretion, and an array of kinase profiling. The G2/M assays include HeLa cell proliferation, apoptosis, DNA content, and condensation, cyclin B, and phosphor-histone H3. […] Alkaline phosphatases may perhaps be a target of the anti-invasive latrunculin 11.

Bounds are passed on as bounds.

With `COc1ccc(CC(=O)N2C(=O)SC[C@H]2[C@@]2(OC)C[C@H]3C[C@@H](CC[C@H](C)/C=C\C=C\CC/C(C)=C\C(=O)O3)O2)cc1` [Compound 11, 17-O-Methyl-N-(7′-methoxyphenylacetyl)latrunculin A], at pyrene-conjugated actin, the inhibition at 0.1 µM is 0%, the inhibition at 1 µM was 13% and the IC50 was greater than 10000 nM. In assay [1], the midpoint of inhibition, the IC50, lay at 4 nM. For the same compound, in the assay with β-catenin in C2C12 cells, the Wnt/β-catenin signaling result is recorded as “strongly inhibited”. The compound also came in with an IC50 in the assay on β-catenin in C2C12 cells (Mus musculus) of 7 nM. Besides, the anti-migratory activity result in the assay with MDA-MB-231 is recorded as “potent anti-migratory”. Moreover, the “anti-invasive activity against PC-3” value in assay [2] is “potent anti-invasive activity”.
`C/C1=C/C(=O)O[C@@H]2C[C@@H](CC[C@H](C)/C=C\C=C\CC1)O[C@@](O)([C@@H]1CSC(=O)N1CO)C2` [Compound 14, N-Hydroxymethyllatrunculin A]: on pyrene-conjugated actin, the inhibition at 0.1 µM is 35%, the inhibition at 1 µM came to 90% and the 50% inhibitory concentration (IC50) amounted to 210 ± 54 nM. Also, the “number of the 60 cell lines tested with antiproliferative activity” value in assay [3] (dose of 10 μM) is recorded as 18. This compound also yielded a log10GI50 in assay [3] (five-points dose-response, range over active cell lines) of −7.13 to −7.83. Also, the affinity toward kinases entry with array of kinases is on record as “Neither compound 20 nor compound 14 showed affinity toward any kinase tested”.
